PMC3587609, “A Novel Cell-Penetrating Peptide Derived from Human Eosinophil Cationic Protein” (PLoS ONE, 2013)
No end group written: not given here.

Assays:
Beas-2B cells [1] = assay: Cell viability assay (MTT)
Procedure: Beas-2B cells were grown in serum-free medium in the presence of ECP^32–41 at indicated concentrations for 24 h. (A) The cytotoxic effect of ECP^32–41 was measured by MTT assay. The cell viability of untreated cells was set to 100%. Cells treated with 0.1% Triton X-100 was used as a positive control. (B) The membrane disruption by ECP^32–41 was measured by LDH assay. LDH released from cells lysed with 0.1% Triton X-100 in medium was defined as 100% leakage and LDH released from untreated cells was set as 0% leakage.
Beas-2B cells were incubated with 10 µM eGFP or eGFP-ECP^32–41 at 37°C for 1 h. The cells were then washed with 500 µl PBS, trypsinized at 37°C for 15 min, suspended in 500 µl PBS, and subjected to flow cytometry. (B) Beas-2B cells were treated with the indicated concentrations of TAT^47–57, ECP^32–41, KLA, KLA-TAT^47–57 or KLA-ECP^32–41 at 37°C for 24 h, and their cytotoxic effects were determined by the MTT assay. Cytotoxic effects of (C) KLA-TAT^47–57 and (D) KLA-ECP^32–41, at the indicated concentrations, on Beas-2B, A549, Caco-2, and AGS cells were assessed by the MTT assay after incubation at 37°C for 24 h. The cell viability untreated cells was set to 100%. The result is expressed as the mean ± S.D., n = 3.
The effects of the peptides on cell viability were determined colourimetrically using 3-(4,5-dimethylthiazol-2-yl)-2,5-diphenyltetrazolium bromide (MTT) (US Biological). Cells (1.0×10^4/well) were seeded into the wells of 96-well plates and incubated overnight. Cell samples were then exposed to different concentrations of TAT^47–57, ECP^32–41, KLA, KLA-TAT^47–57 or KLA-ECP^32–41. After 24 h, 100 µl of 0.5 mg/ml MTT in medium was added into each well, and the cells were incubated at 37°C for 3 h. The incubation medium was removed, and the remaining purple crystal formazan was dissolved in dimethylsulphoxide. Cells treated with 0.1% Triton X-100 was used as a positive control for cell viability. A540 values were measured using a multiwall plate reader (Molecular Devices).

Caco-2 cells = assay: Cell viability assay (MTT); format: cell-based, human; conditions: 24 h
Excerpt: (§1) The cell viability untreated cells was set to 100%.

AGS cells = assay: Cell viability assay (MTT); format: cell-based, human; conditions: 24 h
Excerpt: as §1

Beas-2B cells [2] = assay: Cell-surface HS / CS after enzyme treatment (anti-HS or anti-CS antibody, flow cytometry); format: cell-based; conditions: 2 h, untreated cells 100%, n = 3; for decrease of the amount of HS on Beas-2B cell surfaces: 5 U/ml heparinase I or 2.4 U/ml heparinase III, anti-HS monoclonal antibody
Procedure: Figure 3 HS-dependent ECP^32–-41 internalization. […] (B) Samples of wild-type and mutant CHO cells were each incubated with 5 µM FITC-ECP^32–41 at 37°C for 1 h and then subjected to flow cytometry. (C) Samples of wild-type and mutant CHO cells were incubated with 5 µM FITC-ECP^32–41 at 37°C for 1 h., then washed twice with 1 ml PBS, and fixed for CLSM. Nuclei were stained with Hoechst 34850. Scale bar: 20 µm. (D) Beas-2B cells were treated with heparinase I, heparinase III, or chondroitinase ABC for 2 h prior to incubation with 5 µM FITC-ECP^32–41 at 37°C for 1 h. […] Untreated cells served as the controls. The fluorescence of cells treated with FITC-ECP^32–41 was set to 100%. […] (E) Beas-2B cells were treated with heparinase I, heparinase III, or chondroitinase ABC for 2 h. […] Untreated cells served as the control. The fluorescence of the untreated cells was set to 100%.
To verify that selective cell-surface polysaccharides had been enzymatically removed, the treated cells were subsequently incubated with anti-HS or anti-CS monoclonal antibodies. As expected, heparinase I and heparinase III had decreased the amount of HS on Beas-2B cell surfaces by 48% and 61%, respectively (Figure 3E, left panel), and chondroitinase ABC removed 72% of the cell-surface CS (Figure 3E, right panel). The HS that remained on Beas-2B cell surface accounted for the observed ECP^32–41 internalization into heparinase-treated cells. Conversely, even though 70% of the initial cell-surface CS had been removed, ECP^32–41 internalization was hardly affected–thus as concluded above, HS, rather than CS, is responsible for ECP^32–41 internalization.
Beas-2B cells (3.0×10^5/well) were incubated with RPMI 1640 medium overnight in six-well plates and then treated with 5 U/ml of heparinase I, 2.4 U/ml of heparinase III, or 10 U/ml of chondroitinase ABC (Sigma-Aldrich) at 37°C for 2 h. After a PBS wash, the cells were incubated with FITC-ECP^32–41 and assayed for internalization of the peptide by flow cytometry as described above.

Q: `N=C(N)NCCC[C@H](NC(=O)CN)C(=O)N[C@@H](CCCCN)C(=O)N[C@@H](CCCCN)C(=O)N[C@@H](CCCNC(=N)N)C(=O)N[C@@H](CCCNC(=N)N)C(=O)N[C@@H](CCC(N)=O)C(=O)N[C@@H](CCCNC(=N)N)C(=O)N[C@@H](CCCNC(=N)N)C(=O)N[C@@H](CCCNC(=N)N)C(=O)N1CCC[C@H]1C(=O)O` [TAT^47–57] was tested. Which “cell viability (MTT) at 100 µM” value (Beas-2B cells [1]; Beas-2B, 100 µM peptide, 37°C, 24 h, n = 3) did it give?
A: Its value is “neither peptide affected cell viability”.

Q: KLAKLAKKLAKLAK was tested. Which “cytotoxicity (MTT)” value (Beas-2B cells [1]) did it give?
A: Its value is “not cytotoxic”.

Q: What does the source list for “KLAKLAKKLAKLAKNYRWRCKNQN [KLA-ECP^32–41]”?
A: EC50 fold higher than that of KLA-TAT47–57 (Caco-2 cells): 1.6 fold; EC50 fold higher than that of KLA-TAT47–57 (AGS cells): 2.42 fold

Q: How did the “cell-surface CS removed” value (Beas-2B cells [2]; 10 U/ml chondroitinase ABC, anti-CS monoclonal antibody) turn out when chondroitinase ABC was run?
A: Its value is 72%.

Q: How did the “decrease of the amount of HS on Beas-2B cell surfaces” value (Beas-2B cells [2]) turn out when heparinase I was run?
A: The value was 48%.

Q: With heparinase III as the compound, how does the “decrease of the amount of HS on Beas-2B cell surfaces” value (Beas-2B cells [2]) read?
A: The value was 61%.
